# “And” between values parts separate entries of the source, which are not always exact repeats. Identical values can stand only once.
# How the values were obtained:
# [1] = system: patients with elevated triglyceride levels on statin therapy; assay: REDUCE-IT endpoints by pooled (icosapent ethyl and placebo) EPA blood level tertile; format: in vivo, human; details: icosapent ethyl and placebo pooled
# From the text: The objective of this study is to assess the effects of administering icosapent ethyl at 4 g per day to patients from the REDUCE-IT trial of Example 1. More specifically, patients from the REDUCE-IT trial of Example 1 were stratified by their EPA levels into one of three tertiles. Following stratification, the objective was to determine if the RRR differs between patients having EPA levels in the three different tertiles. For the data collected as shown in Tables 38-43 and FIGS. 52, 53, and 56-59, the tertiles were established based on data collected from subjects at 1 year, 2 years, and last visit following icosapent ethyl administration compared to placebo. Data are presented as an average of 1 year, 2 year, […], and end of study values. The data was further analyzed use both pooled and unpooled statistically methods.
# (0.84 for lowest vs. placebo, 0.72 for middle vs. placebo, and 0.65 for highest vs. placebo).
# [2] = system: patients with elevated triglyceride levels on statin therapy with established cardiovascular disease or at high risk; assay: REDUCE-IT trial: time to first occurrence of adjudicated cardiovascular endpoint events, AMR101 4 g daily vs placebo; format: in vivo, human
# From the text: The following study, also referred to as the REDUCE-IT clinical trial, was a large cardiovascular (CV) outcome trial designed to assess CV risk reduction benefit of AMR101 treatment (commercially known as VASCEPA®) versus placebo on the 5-point primary composite endpoint: CV death, non-fatal stroke, non-fatal myocardial infarction (MI), coronary revascularizations, or unstable angina requiring hospitalization.
# A multi-center, prospective, randomized, double-blind, placebo-controlled, parallel-group study was performed to evaluate the effect of AMR101 (4 g per day) on cardiovascular health and mortality in hypertriglyceridemic patients with cardiovascular disease or at high risk for cardiovascular disease. The intended expanded indication of the study was treatment with AMR101 as an add-on to statin therapy to reduce the risk of cardiovascular events in patients with clinical cardiovascular disease or with multiple risk factors for cardiovascular disease.
# The primary objective of this study was, in patients at LDL-C goal while on statin therapy, with established cardiovascular disease (CVD) or at high risk for CVD, and hypertriglyceridemia (e.g., fasting triglycerides(TG)≥200 mg/dL and <500 mg/dL), to evaluate the effect of AMR101 4 g daily on time from randomization to first occurrence of any component of the composite of the following major CV events: CV death; nonfatal MI; (including silent MI; electrocardiograms (ECGs) were performed annually for the detection of silent MIs); nonfatal stroke; coronary revascularization; and unstable angina determined to be caused by myocardial ischemia by invasive/non-invasive testing and requiring emergent hospitalization.
# The key secondary objective of this study was to evaluate the effect of AMR101 4 g daily on the time from randomization to the first occurrence of the composite of following major CV events: CV death, nonfatal MI (including silent MI), and nonfatal stroke.
# Other secondary objectives for this study were to evaluate the effect of therapy on time from randomization to the first occurrence of the following individual or composite endpoints: composite of CV death or nonfatal MI (including silent MI); fatal or nonfatal MI (including silent MI); non-elective coronary revascularization represented as the composite of emergent or urgent classifications; CV death; unstable angina determined to be caused by myocardial ischemia by invasive/non-invasive testing and requiring emergent hospitalization; fatal or nonfatal stroke; composite of total mortality, nonfatal MI (including silent MI), or nonfatal stroke; and total mortality.
# Primary Efficacy Endpoint: The primary efficacy endpoint was time from randomization to the first occurrence of the composite of the following clinical events: CV death; nonfatal MI (including silent MI; ECGs were performed annually for the detection of silent MIs); nonfatal stroke; coronary revascularization; and unstable angina determined to be caused by myocardial ischemia by invasive/non-invasive testing and requiring emergent hospitalization. The first occurrence of any of these major adverse vascular events during the follow-up period of the study were included in the incidence.
# Secondary Efficacy Endpoints: The key secondary efficacy endpoint was the time from randomization to the first occurrence of the composite of CV death, nonfatal MI (including silent MI), or nonfatal stroke. […]
# [3] = highest >118.1 μg/mL vs lowest ≤31.305 μg/mL
# [4] = highest >118.1 μg/mL vs middle >31.305 to ≤118.1 μg/mL
# [5] = middle >31.305 to ≤118.1 μg/mL vs lowest ≤31.305 μg/mL
# [6] = adjudicated tertiary endpoint, listed as AMR101
# [7] = adjudicated tertiary endpoint, listed as Icosapent Ethyl
# [8] = vs placebo, median follow up 4.9 years
# [9] = vs placebo, time to first event
# [10] = vs placebo, time to first occurrence
smiles,measurement,setting,value
"CC/C=C\C/C=C\C/C=C\C/C=C\C/C=C\CCCC(=O)OCC [icosapent ethyl, eicosapentaenoic acid ethyl ester]","HR (95% CI), Key Secondary Endpoint, pooled EPA tertiles, Highest vs Lowest",[1]; [3],"0.61 (0.51, 0.71)"
same,"HR (95% CI), Primary Endpoint, pooled EPA tertiles, Highest vs Lowest",[1]; [3],"0.65 (0.57, 0.74)"
same,"HR (95% CI), Key Secondary Endpoint, pooled EPA tertiles, Highest vs Middle",[1]; [4],"0.78 (0.65, 0.92)"
same,"HR (95% CI), Primary Endpoint, pooled EPA tertiles, Highest vs Middle",[1]; [4],"0.80 (0.70, 0.92)"
same,"HR (95% CI), Key Secondary Endpoint, pooled EPA tertiles, Middle vs Lowest",[1]; [5],"0.78 (0.67, 0.91)"
same,"HR (95% CI), Primary Endpoint, pooled EPA tertiles, Middle vs Lowest",[1]; [5],"0.81 (0.71, 0.92)"
same,"Amputation for PVD, patients with event",[2]; adjudicated tertiary endpoint,(0.5%)
same,"Cardiac Arrest, patients with event",[2]; adjudicated tertiary endpoint,(0.5%)
same,"Cardiac Arrhythmias Requiring Hospitalization of ≥24 Hours, patients with event",[2]; adjudicated tertiary endpoint,(4.6%)
same,"Carotid Revascularization, patients with event",[2]; adjudicated tertiary endpoint,(0.8%)
same,"Coronary Revascularization, patients with event",[2]; adjudicated tertiary endpoint,(9.2%)
same,"Elective Revascularization, patients with event",[2]; adjudicated tertiary endpoint,(4.7%)
same,"Emergent Revascularization, patients with event",[2]; adjudicated tertiary endpoint,(1.0%)
same,"Ischemic Stroke, patients with event",[2]; adjudicated tertiary endpoint,(2.0%)
same,"New Heart Failure Requiring Hospitalization, patients with event",[2]; adjudicated tertiary endpoint,(3.4%)
same,"Primary Endpoint in Patients with Diabetes at Baseline, patients with event",[2]; adjudicated tertiary endpoint,(18.1%)
same,"Salvage Revascularization, patients with event",[2]; adjudicated tertiary endpoint,(0.0%)
same,"Sudden Cardiac Death, patients with event",[2]; adjudicated tertiary endpoint,1.5%
same,"Transient Ischemic Attack, patients with event",[2]; adjudicated tertiary endpoint,(1.6%)
same,"Urgent Revascularization, patients with event",[2]; adjudicated tertiary endpoint,(4.4%)
same,"Hemorrhagic Stroke, patients with event",[2]; [6],0.3%
same,"New Heart Failure, patients with event",[2]; [6],4.1%
same,"Hemorrhagic Stroke, patients with event",[2]; [7],(0.3%)
same,"New Heart Failure, patients with event",[2]; [7],(4.1%)
same,"Sudden Cardiac Death, patients with event",[2]; [7],(1.5%)
same,"key secondary composite endpoint, patients with event","[2]; first occurrence of CV death, nonfatal MI or nonfatal stroke, median follow up 4.9 years",11.2%
same,"primary composite endpoint, patients with event","[2]; first occurrence of CV death, nonfatal MI, nonfatal stroke, coronary revascularization or unstable angina, median follow up 4.9 years",17.2%
same,"cardiovascular death, patients with event",[2]; in vivo,4.3%
same,"total mortality, patients with event",[2]; in vivo,6.7%
same,"key secondary composite endpoint, number needed to treat",[2]; median follow up 4.9 years,28
same,"primary composite endpoint, number needed to treat",[2]; median follow up 4.9 years,21
same,"New Onset of Diabetes, patients with event",[2]; patients with diabetes at baseline excluded,(3.8%)
same,"Amputation for PVD, HR",[2]; vs placebo,1.04
same,"Cardiac Arrest, HR",[2]; vs placebo,0.52
same,"Cardiac Arrhythmias Requiring Hospitalization of ≥24 Hours, HR",[2]; vs placebo,1.21
same,"Carotid Revascularization, HR",[2]; vs placebo,1.18
same,"Coronary Revascularization, HR",[2]; vs placebo,0.66
same,"Elective Revascularization, HR",[2]; vs placebo,0.68
same,"Emergent Revascularization, HR",[2]; vs placebo,0.62
same,"Hemorrhagic Stroke, HR",[2]; vs placebo,1.28
same,"Ischemic Stroke, HR",[2]; vs placebo,0.64
same,"New Heart Failure Requiring Hospitalization, HR",[2]; vs placebo,0.97
same,"New Heart Failure, HR",[2]; vs placebo,0.95
same,"Primary Endpoint in Patients with Diabetes at Baseline, HR",[2]; vs placebo,0.77
same,"Salvage Revascularization, HR",[2]; vs placebo,0.00
same,"Sudden Cardiac Death, HR",[2]; vs placebo,0.69
same,"Transient Ischemic Attack, HR",[2]; vs placebo,1.32
same,"Urgent Revascularization, HR",[2]; vs placebo,0.66
same,"cardiac arrest, reduction",[2]; vs placebo,48%
same,"cardiovascular death, HR",[2]; vs placebo,0.80
same,"cardiovascular death, relative risk reduction",[2]; vs placebo,20%
same,"composite of cardiovascular death or nonfatal myocardial infarction, RRR",[2]; vs placebo,25%
same,"composite of total mortality, nonfatal myocardial infarction, or nonfatal stroke, RRR",[2]; vs placebo,23%
same,"fatal or nonfatal myocardial infarction, RRR",[2]; vs placebo,31%
same,"fatal or nonfatal stroke, RRR",[2]; vs placebo,28%
same,"hospitalization for unstable angina, RRR",[2]; vs placebo,32%
same,"myocardial infarction, HR",[2]; vs placebo,0.69
same,"primary endpoint risk reduction, post hoc analysis excluding patients with diarrhea",[2]; vs placebo,25%
same,"stroke, HR",[2]; vs placebo,0.72
same,"sudden cardiac death, reduction",[2]; vs placebo,31%
same,"total mortality, HR",[2]; vs placebo,0.87
same,"total mortality, relative risk reduction",[2]; vs placebo,13%
same,"urgent or emergent revascularization, RRR",[2]; vs placebo,35%
same,"key secondary composite endpoint, absolute risk reduction",[2]; [8],3.6%
same,"primary composite endpoint, absolute risk reduction",[2]; [8],4.8%
same,"New Onset of Diabetes, HR","[2]; vs placebo, patients with diabetes at baseline excluded",1.04
same,"key secondary composite endpoint, relative risk reduction",[2]; [9],26% and 26.5%
same,"primary composite endpoint, relative risk reduction",[2]; [9],25% and 24.8%
same,"key secondary composite endpoint, HR",[2]; [10],0.74
same,"primary composite endpoint, HR",[2]; [10],0.75
